Data on three compounds can be found in ChEMBL document CHEMBL1201862, “PubChem BioAssay data set” (2004).

For assay [1], the target named is T1, Microphthalmia-associated transcription factor (Homo sapiens, UniProt O75030).
T1 sequence (O75030 whole entry): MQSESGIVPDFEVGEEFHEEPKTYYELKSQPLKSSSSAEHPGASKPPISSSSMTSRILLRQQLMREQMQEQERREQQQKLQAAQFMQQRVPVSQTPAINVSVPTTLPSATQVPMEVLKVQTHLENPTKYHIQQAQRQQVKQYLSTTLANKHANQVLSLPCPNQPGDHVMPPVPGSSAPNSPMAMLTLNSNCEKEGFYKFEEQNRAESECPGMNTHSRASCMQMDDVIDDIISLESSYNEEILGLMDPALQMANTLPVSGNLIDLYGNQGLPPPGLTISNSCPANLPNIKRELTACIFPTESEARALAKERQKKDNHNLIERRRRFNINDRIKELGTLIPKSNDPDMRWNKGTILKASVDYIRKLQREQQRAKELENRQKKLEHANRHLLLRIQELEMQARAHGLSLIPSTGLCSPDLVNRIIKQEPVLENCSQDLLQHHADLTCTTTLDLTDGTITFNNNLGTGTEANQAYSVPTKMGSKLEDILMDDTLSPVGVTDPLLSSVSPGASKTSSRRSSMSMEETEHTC
As to the kind of experiment: TRPM1 promoter luciferase signal decrease, dose response, MITF inhibitor project, cell-based, SK-MEL-5, cherry-picked, set 3 (AID 493073).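 Further: SK-MEL-5 melanoma cells with luciferase driven by the MITF target TRPM1 promoter.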 The assay is classed as functional.

For assay [2], the target named is T2, Histone-lysine N-methyltransferase NSD2 (Homo sapiens, UniProt O96028).
T2 sequence (O96028 whole entry): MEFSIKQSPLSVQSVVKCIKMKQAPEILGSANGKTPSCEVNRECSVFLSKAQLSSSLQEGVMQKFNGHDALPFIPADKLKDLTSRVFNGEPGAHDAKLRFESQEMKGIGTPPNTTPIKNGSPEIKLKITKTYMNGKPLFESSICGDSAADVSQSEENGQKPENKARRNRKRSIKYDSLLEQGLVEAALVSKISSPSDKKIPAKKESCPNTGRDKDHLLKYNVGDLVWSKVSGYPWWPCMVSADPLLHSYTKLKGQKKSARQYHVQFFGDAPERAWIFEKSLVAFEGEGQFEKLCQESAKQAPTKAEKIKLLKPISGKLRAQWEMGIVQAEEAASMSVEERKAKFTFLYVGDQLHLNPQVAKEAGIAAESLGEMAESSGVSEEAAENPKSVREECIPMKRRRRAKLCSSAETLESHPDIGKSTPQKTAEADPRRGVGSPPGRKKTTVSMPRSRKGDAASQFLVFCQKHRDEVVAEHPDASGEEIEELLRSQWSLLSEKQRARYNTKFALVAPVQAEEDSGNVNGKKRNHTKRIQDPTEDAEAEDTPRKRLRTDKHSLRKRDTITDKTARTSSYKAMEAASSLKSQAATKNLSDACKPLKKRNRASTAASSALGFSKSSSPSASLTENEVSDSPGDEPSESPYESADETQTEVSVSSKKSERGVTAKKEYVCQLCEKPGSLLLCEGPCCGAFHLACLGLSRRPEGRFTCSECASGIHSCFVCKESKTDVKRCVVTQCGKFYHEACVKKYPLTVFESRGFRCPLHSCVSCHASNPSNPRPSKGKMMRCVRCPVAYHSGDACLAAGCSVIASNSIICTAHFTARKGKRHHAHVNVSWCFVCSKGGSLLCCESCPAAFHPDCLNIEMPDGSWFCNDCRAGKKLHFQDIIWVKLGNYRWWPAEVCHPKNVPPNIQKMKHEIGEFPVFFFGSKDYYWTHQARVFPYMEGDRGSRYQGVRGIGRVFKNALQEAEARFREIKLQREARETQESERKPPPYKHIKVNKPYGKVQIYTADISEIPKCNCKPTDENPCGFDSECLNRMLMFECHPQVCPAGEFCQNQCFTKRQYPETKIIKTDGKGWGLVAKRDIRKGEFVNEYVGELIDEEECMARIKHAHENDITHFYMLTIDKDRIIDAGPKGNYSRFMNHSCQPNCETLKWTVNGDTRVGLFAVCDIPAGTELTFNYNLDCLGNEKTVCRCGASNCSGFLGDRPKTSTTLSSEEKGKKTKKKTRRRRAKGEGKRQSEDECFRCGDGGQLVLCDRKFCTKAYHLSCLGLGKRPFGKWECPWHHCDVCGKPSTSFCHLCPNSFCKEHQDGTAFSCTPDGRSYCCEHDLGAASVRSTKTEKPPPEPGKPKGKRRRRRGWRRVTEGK
The assay is classed as biochemical.

Assay [3] can be described thus: microbe, parasite or virus in culture. The assay is classed as functional. Particulars: Mycobacterium tuberculosis.
The subject of another assay is A-375. As to the kind of experiment: MITF: Counter assay: A375 proliferation Measured in Cell-Based System Using Plate Reader - 2084-03_Inhibitor_Dose_DryPowder_Activity. [Related pubchem assays (depositor defined):AID488944]. The assay is classed as functional. Conditions: Homo sapiens.
For assay [4], the system named is HEK293. As to the kind of experiment: cells. Particulars: Homo sapiens.
Assay [5] is described as follows: growth suppression of beta-catenin-knockout colon cells, dose response, cell-based, HCT116, human colon tumor (AID 1045).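 Further: HCT116 colon tumor cells with beta catenin knocked out; cells exposed to compound for 60 hours.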 The assay is classed as functional.
A short description of assay [6]: growth suppression of PTEN-null colon cells, dose response, cell-based, HCT116 PTEN knockout (AID 1047).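 Further: HCT116 colon tumor cells with PTEN knocked out; cells exposed to compound for 60 hours before readout; potency for loss of cell viability measured by luminescence.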 The assay is classed as functional.
The subject of assay [7] is HEK293. Briefly: cells. Conditions: Homo sapiens. This is another data set of the same source.
In assay [8] the test system is HEK293. Briefly: cytotoxicity in HEK293T NF-kB-Luc cells, SAR follow-up, cytotoxicity control for NF-kB activator project, cell-based, resazurin fluorescence (AID 493251). The assay is classed as functional. Conditions: Homo sapiens.
Assay [9] has as its system HEK293. Briefly: SAR Analysis of small molecule inhibitors of T-cell specific antigen receptor-induced NF-kB activation in a HEK-293T cell line using a luminescence assay - Set 2. [Related pubchem assays (depositor defined):AID435003, AID435012, AID489026]. The assay is classed as functional, cell-based. Conditions: Homo sapiens.
A further assay deals with Jurkat. As to the kind of experiment: SAR Analysis of small molecule inhibitors of T-cell specific antigen receptor-induced NF-kB activation in a Jurkat cell line using a luminescence assay - Set 2. [Related pubchem assays (depositor defined):AID435003, AID435012, AID465]. The assay is classed as functional, cell-based. Conditions: Homo sapiens.

Activity calls are given as the source filed them.

A word on the AC50: it is the concentration at which the activity in the assay is half-maximal. In the case of `CC1C/C(=C\c2cccnc2)C(=O)/C(=C/c2cccnc2)C1` (stereo unspecified), the AC50 was 2.66 µM (active) in [1], 19 µM (active) in [2] and 21.5 µM (active) with A-375. Moreover, in assay [3], the CC50 was 15.3 µM (active).

As usually defined, the EC50 is the concentration at which the effect is half-maximal. For `CC1=CC(C)(C)Nc2ccc(OC(=O)CCN3C(=O)c4ccccc4C3=O)cc21`, the EC50 is > 59.6 µM (inactive) with HEK293 [4], 6.3 µM (active) in assay [5], 10.8 µM (active) in assay [6] and > 59.6 µM (inactive) with HEK293 [7].

For orientation: IC50 means the concentration that inhibits the measured activity by half. As for `CCOc1ccc(-c2nc(CS(=O)(=O)CC(=O)NCc3ccc(F)cc3)c(C)o2)cc1`, the IC50 was > 80 µM (inactive) in the assay with HEK293 [8], > 80 µM (inactive) in the assay with HEK293 [9] and > 79 µM (inactive) with Jurkat.
